{"source": "patent US12662511B2", "about": "“Molecular transport system to the central nervous system” (SRI International, priority 2020, dated 2026)", "key": {"choroid plexus cells": {"test_system": "choroid plexus cells", "test": "Transport across monolayer of choroid plexus cells with dye or streptavidin cargo (FIG. 21)", "assay_type": "cell-based", "settings": "chemical (AF647 dye) and protein (50 kDa Streptavidin) cargoes", "source_text": "The integrity of the monolayer with tight junctions is observed by the lack of diffusion or transport of low a molecular weight dye (750) maleimide), a 10 kDa dextran polymer, or larger protein (50 kDa). In the SA conjugate, the MTS has a biotin in the core structure. The biotin is then conjugated to a streptavidin protein labeled with a fluorophore."}, "[1]": {"test": "In vivo CSF accumulation and brain distribution of dye-labeled MTS after IV tail vein injection", "set-up": "species or system rat", "settings": "for amount present relative to MTS_CPEC4_V2 / distribution in brain (fluorescence imaging of coronal slices): rat, IV tail vein; for amount present relative to MTS_CPEC4_V2: CSF, dimeric peptide, fold higher than MTS_CPEC4_V2; for distribution in brain (fluorescence imaging of coronal slices): dye-labeled MTS", "method": "(§1) The MTS is labeled with a dye that allows us to visualize its location. It is injected IV into the tail vein of a rat. After the indicated time, the CSF is isolated from the cisterna magna. The brain is harvested. After a fixation period, the brain is sliced in 1 mm coronal segments (front to back). The individual slices of the brain are imaged using fluorescence to locate the regions of peptide accumulation.\nas §1, with “Dimeric MTS_Z310-5 is present in an amount 3× higher than MTS_CPEC4_V2 (FIG. 26). […] The MTS” for “The MTS”, “of peptide accumulation” for “of peptide accumulation.”\nas §1, with “Dimeric MTS_Z310-2 is present in an amount 9× higher than MTS_CPEC4_V2 (FIG. 27). […] The MTS” for “The MTS”, “of peptide accumulation” for “of peptide accumulation.”"}, "[2]": {"test": "Serum stability of MTS peptide", "assay_type": "in vitro ADME", "settings": "read-out: peptide remains intact", "method": "The stability of the different MTS sequences is important. […] 80% of the peptide remains intact at 24 hours. Modifications were mapped by MS."}, "[3]": {"test_system": "choroid plexus epithelial cell layer", "test": "Phage clone transport through human choroid plexus cells in vitro (FIG. 12)", "assay_type": "cell-based", "settings": "phage-displayed peptide", "method": "CPEC4_Phage clone sequence […] (SEQ ID NO:2) was the lead peptide sequence in these studies. CPEC4 phage clone is enriched as multiple rounds of panning were performed. CPEC4 phage clone is selected from the transwell indicating transport and release.\nThe phage clone remains viable during the cellular transport."}, "[4]": {"test_system": "human primary choroid plexus epithelial cells", "test": "Transwell transport of fluorescent protein cargo across human choroid plexus in vitro model", "assay_type": "cell-based", "source_text": "A rat model was developed as well. Selection to identify a phage clone from the library that crosses the choroid plexus epithelial barrier has also been informed. […] The phage clone was transported into the CSF selectively and data supported similar transport for the MTS peptide.\nFIG. 13 represents a dimer of the CPEC4 peptide. The CPEC4 peptide was synthesized as a dimer and having a biotin handle that allows for attachment of fluorescently labeled proteins.\n6-9% of the protein is transported across the cell layer. Tight junctions remain intact as witnessed by lack of dextran transport and maintenance of transepithelial resistance at the end of the experiment."}, "[5]": {"test_system": "rat choroid plexus epithelial cells (Z310)", "test": "Transwell transport across rat choroid plexus epithelial cells (Z310)", "assay_type": "cell-based", "method": "FIG. 15 is an in vitro transwell assay used to determine the ability of the MTS_CPEC4 phage clone or peptide to cross a choroid plexus barrier model derived from a Rat (Z310) cells). The amount of input placed on one side of the barrier (the “blood” side) and the amount that passes through the cells to the other side (the CSF side) is measured. The top table represents the data for the phage clone. The empty phage has no MTS peptide attached. The amount of phage in each side of the transwell is determined by bacterial titering. The bottom table represents the data for the synthetic peptide. Here the peptide is labeled with a fluorophore so the peptide on either side of the barrier can be measured. Dextran-dye (such as Alexa Fluor 488) is used as a control molecule. This molecule should not pass through the transwell and assures that the choroid plexus model is valid.\nOther lead MTS peptides were examined using a transwell transport set up with rat choroid plexus cells (FIG. 24). Eight phage clones were enriched in the CSF. Individual phage clones were then tested for transcytosis in vitro on Z310 choroid plexus cells and CSF accumulation in rats. MTS_Z310-2 (SEQ ID NO:4) and MTS_Z310-5 (SEQ ID NO:7) phage clones were carried forward for further evaluation. […] The 20% transport is better than that seen with CPEC4. […]"}}, "note": "No end group written: not given here."}
{"compound": "CSCC[C@H](NC(=O)[C@H](CCC(N)=O)NC(=O)[C@H](Cc1c[nH]c2ccccc12)NC(=O)[C@H](CC(=O)O)NC(=O)[C@H](CC(C)C)NC(=O)[C@H](CO)NC(=O)[C@@H](NC(=O)[C@H](CCC(N)=O)NC(=O)[C@H](CC(C)C)NC(=O)[C@H](CCCCN)NC(=O)[C@H](Cc1ccc(O)cc1)NC(=O)[C@H](C)NC(=O)[C@H](CC(=O)O)NC(C)=O)[C@@H](C)O)C(=O)N[C@@H](Cc1c[nH]c2ccccc12)C(=O)N[C@@H](CC(N)=O)C(=O)N1CCC[C@H]1C(=O)NCCOCCOCCOCCOCCOCCOCCOCCOCCOCCOCCOCCC(N)=O", "note": "[MTS-CPEC4_V2]", "values": [{"measurement": "transport across monolayer of choroid plexus cells", "setting": "choroid plexus cells", "value": "efficiently transported"}, {"measurement": "accumulation in the CSF", "setting": "[1]; rats, tail vein injection", "value": "accumulating in the CSF"}, {"measurement": "remaining at 24 h", "setting": "[2]", "value": 80, "unit": "%"}]}
{"compound": "DGYKLQTSLDWQMWNP (molecular transport peptide) [MTS_CPEC4_V1]", "values": [{"measurement": "transport across monolayer of choroid plexus cells", "setting": "choroid plexus cells", "value": "efficiently transported"}, {"measurement": "transport of phage particle across choroid plexus epithelial cell layer", "setting": "[3]", "value": "mediates transport of a large phage particle across choroid plexus epithelial cell layer"}, {"measurement": "protein transported across the cell layer", "setting": "[4]", "value": "6-9%"}]}
{"compound": "Dimeric MTS_Z310-2: comprises two MTS peptides each having the sequence FPSWTSKNQQWTNQRQ (SEQ ID NO:4) (also: dimer, linkage not given here)", "values": [{"measurement": "amount present relative to MTS_CPEC4_V2", "setting": "[1]", "value": 9, "unit": "×"}, {"measurement": "distribution in brain (fluorescence imaging of coronal slices)", "setting": "[1]", "value": "distributed throughout the ventricular system"}]}
{"compound": "Dimeric MTS_Z310-5: comprises two MTS peptides each having the sequence SKETYSMNAQRQHERS (SEQ ID NO:7) (also: dimer, linkage not given here)", "values": [{"measurement": "amount present relative to MTS_CPEC4_V2", "setting": "[1]", "value": 3, "unit": "×"}, {"measurement": "distribution in brain (fluorescence imaging of coronal slices)", "setting": "[1]", "value": "distributed throughout the ventricular system of the brain"}]}
{"compound": "FPSWTSKNQQWTNQRQ (molecular transport peptide) [MTS_Z310-2]", "values": [{"measurement": "transport of protein cargo", "setting": "[5]", "value": 20, "unit": "%"}]}
{"compound": "MTS_CPEC4_V2 (SEQ ID NO: 1) dimers: comprises two MTS peptides each having the sequence DAYKLQTSLDWQMWNP (SEQ ID NO: 1) (also: dimer, linkage not given here)", "values": [{"measurement": "distribution in brain (fluorescence imaging of coronal slices)", "setting": "[1]", "value": "distributed throughout the ventricular system of the brain"}]}
{"compound": "SKETYSMNAQRQHERS (molecular transport peptide) [MTS_Z310-5]", "values": [{"measurement": "transport of protein cargo", "setting": "[5]", "value": 20, "unit": "%"}]}
